Measurements as given in publication PMC6222718, “Ethylenediamine Derived Carboxamides of Betulinic and Ursolic Acid as Potential Cytotoxic Agents” (Molecules : A Journal of Synthetic Chemistry and Natural …, 2018).
Entries after “also recorded” stand apart in the source; their conditions may differ.

How the values were obtained:
[1] = tested on: non-malignant mouse fibroblasts NIH 3T3; assay: SRB cytotoxicity assay, NIH 3T3; assay type: cell-based; conditions: NIH3T3, 96 h of treatment
Procedure: (§1) The cytotoxicity of ursolic and betulinic carboxamides 3–30 was determined in sulforhodamine B (SRB) assays.
(§2) The cell lines used were human cancer cell lines: 518A2 (melanoma), A2780 (ovarian carcinoma), HT29 (colon adenocarcinoma), MCF-7 (breast adenocarcinoma), 8505C (thyroid carcinoma) and non-malignant mouse fibroblasts NIH 3T3. Cultures were maintained as monolayers in RPMI 1640 medium with L-glutamine (Capricorn Scientific GmbH, Ebsdorfergrund, Germany) supplemented with 10% heat inactivated fetal bovineserum (Sigma-Aldrich Chemie GmbH, Steinheim, Germany) and penicillin/streptomycin (Capricorn Scientific GmbH, Ebsdorfergrund, Germany) at 37 °C in a humidified atmosphere with 5% CO2.
(§3) The cytotoxicity of the compounds was evaluated using the sulforhodamine-B (Kiton-Red S, ABCR) micro culture colorimetric assay. Cells were seeded into 96-well plates on day 0 at appropriate cell densities to prevent confluence of the cells during the period of experiment. After 24 h, the cells were treated with 6 different concentrations (1, 3, 7, 12, 20 and 30 µM) minimum. The final concentration of DMSO/DMF never exceeded 0.5%, which was non-toxic to the cells. After a 96 h treatment, the supernatant medium from the 96-well plates was discarded, the cells were fixed with 10% trichloroacetic acid (TCA) and allowed to rest at 4 °C. After 24 h fixation, the cells were washed in a strip washer and dyed with SRB solution (100 µL, 0.4% in 1% acetic acid) for about 20 min. After dying, the plates were washed four times with 1% acetic acid to remove the excess of the dye and allowed to air-dry overnight. Tris base solution (200 µL, 10 mM) was added to each well and absorbance was measured at λ = 570 nm using a 96-well plate reader (Tecan Spectra, Crailsheim, Germany). The EC50 values were averaged from three independent experiments performed each in triplicate calculated from semi logarithmic dose response curves applying a non-linear 4P Hills-slope equation (GraphPad Prism5; variables top and bottom were set to 100 and 0, respectively).

518A2 (melanoma) = assay: SRB cytotoxicity assay, 518A2; assay type: cell-based, human; conditions: for EC50: Homo sapiens, SRB assay, 96 h of treatment, 518A2; for Selectivity index (SI) 518A2: SI = EC50 (NIH 3T3)/EC50 (518A2)
Procedure: as §1, §2, §3

[2] = tested on: HT29 (colon adenocarcinoma); assay: SRB cytotoxicity assay, HT29; assay type: cell-based, human; conditions: for EC50: Homo sapiens, HT-29, SRB assay, 96 h of treatment, HT29; for Selectivity index (SI) HT29: SI = EC50 (NIH 3T3)/EC50 (HT29)
Procedure: as §1, §2, §3

[3] = tested on: A2780 (ovarian carcinoma); assay: SRB cytotoxicity assay, A2780; assay type: cell-based, human; conditions: for EC50: Homo sapiens, SRB assay, 96 h of treatment, A2780; for Selectivity index (SI) A2780: SI = EC50 (NIH 3T3)/EC50 (A2780); for factor by which activity is reduced compared to doxorubicin hydrochloride (DRC): A2780 tumor cells, EC50 versus DRC
Procedure: as §1, §2, §3

[4] = tested on: 8505C (thyroid carcinoma); assay: SRB cytotoxicity assay, 8505C; assay type: cell-based, human; conditions: for EC50: Homo sapiens, SRB assay, 96 h of treatment, 8505C; for Selectivity index (SI) 8505C: SI = EC50 (NIH 3T3)/EC50 (8505C)
Procedure: as §1, §2, §3

[5] = tested on: MCF-7 (breast adenocarcinoma); assay: SRB cytotoxicity assay, MCF-7; assay type: cell-based, human; conditions: for EC50: Homo sapiens, MCF7, SRB assay, 96 h of treatment, MCF-7; for Selectivity index (SI) MCF-7: SI = EC50 (NIH 3T3)/EC50 (MCF-7)
Procedure: as §1, §2, §3

A2780 cells = assay: AO/PI dye exclusion test, A2780; assay type: cell-based, human; conditions: 1 µM, 24 h
Procedure: (§4) Extended biological investigations were performed for compounds 25 and 26 using dye exclusion acridine orange (AO)/propidium iodide (PI) assays by treating MCF-7 or A2780 tumor cells with 25 and 26, respectively for 24 h (Figure 3). […] For both compounds, membrane blebbing of some cells could also be observed. These observations can be regarded as indications of apoptosis.
(§5) Morphological characteristics of cell death were analyzed employing an AO/PI assay using human cancer cell lines A2780 and MCF-7. Approximately 8 × 10^5 cells were seeded in cell culture flasks (25 cm^2), and the cells were allowed to grow for 24 h. After removing the used medium, fresh medium was reloaded (or a blank new medium was used as a control). After 24 h, the content of the flask was collected and centrifuged (1200 rpm, 4 °C), and the pellet was gently suspended in phosphate-buffered saline (PBS (w/w), 1 mL) and centrifuged again. The PBS was removed, and the pellet gently suspended in PBS (50 µL) again. The analysis of the cells was performed using a fluorescence microscope after having mixed the cell suspension (10 µL) with a solution of AO/PI (1 µg/mL, 10 µL).

[6] = tested on: several human tumor cell lines; assay: SRB cytotoxicity assay, cell line panel (summary statements); assay type: cell-based; conditions: for EC50: Homo sapiens, summary over the cell lines tested; for SI factors (over the cancerous cell lines): SI = EC50 (NIH 3T3)/EC50 (tumor cell line), summary
Procedure: as §1, §2, §3

MCF-7 cells = assay: AO/PI dye exclusion test, MCF-7; assay type: cell-based, human; conditions: 24 h
Procedure: as §4, §5

Row | Compound | EC50 [1] | EC50 (518A2 (melanoma)) | Selectivity index (SI) 518A2 (518A2 (melanoma)) | EC50 [2] | Selectivity index (SI) HT29 [2] | EC50 [3] | Selectivity index (SI) A2780 [3] | melting point | EC50 [4] | Selectivity index (SI) 8505C [4] | EC50 [5] | Selectivity index (SI) MCF-7 [5] | AO/PI fluorescence microscopy, cell morphology (A2780 cells) | factor by which activity is reduced compared to doxorubicin hydrochloride (DRC) [3] | EC50 [6] | SI factors (over the cancerous cell lines) [6] | AO/PI fluorescence microscopy, cell morphology (MCF-7 cells; 1 µM) | AO/PI fluorescence microscopy, cell morphology (MCF-7 cells; 0.75 µM)
1 | C=C(C)C1CC[C@]2(C(=O)NCCN3CCNCC3)CC[C@]3(C)C(CCC4[C@@]5(C)CC[C@H](OC(C)=O)C(C)(C)C5CC[C@]43C)C12 (stereo partly drawn) [Compound 21, (3β)-N-(2-Piperazin-1-ylethyl)-3-acetyloxy-lup-20(29)-en-28-amide] | 1000 ± 50 nM | 2500 ± 700 nM | 0.40 | 600 ± 300 nM | 1.67 | 1500 ± 60 nM | 0.67 | 107 to 110 °C | 1100 ± 90 nM | 0.91 | 1900 ± 100 nM | 0.53 |  |  |  |  |  | 
2 | C=C(C)C1CC[C@]2(C(=O)NCCCCN)CC[C@]3(C)C(CCC4[C@@]5(C)CC[C@H](OC(C)=O)C(C)(C)C5CC[C@]43C)C12 (stereo partly drawn) [Compound 22, (3β)-N-(4-Aminobutyl)-3-acetyloxy-lup-20(29)-en-28-amide] | 600 ± 40 nM | 1000 ± 30 nM | 0.60 | 600 ± 50 nM | 1.00 | 1100 ± 30 nM | 0.55 | 133 to 135 °C | 1400 ± 50 nM | 0.43 | 800 ± 40 nM | 0.75 |  |  |  |  |  | 
3 | C=C(C)C1CC[C@]2(C(=O)NCCOCCN)CC[C@]3(C)C(CCC4[C@@]5(C)CC[C@H](OC(C)=O)C(C)(C)C5CC[C@]43C)C12 (stereo partly drawn) [Compound 23, (3β)-N-[2-(2-Aminoethoxy)ethyl]-3-acetyloxy-lup-20(29)-en-28-amide] | 1000 ± 100 nM | 1900 ± 10 nM | 0.53 | 400 ± 100 nM | 2.50 | 1500 ± 100 nM | 0.67 | 109 to 112 °C | 2200 ± 810 nM | 0.45 | 1400 ± 200 nM | 0.71 |  |  |  |  |  | 
4 | C=C(C)C1CC[C@]2(C(=O)NCCN(C)C)CC[C@]3(C)C(CCC4[C@@]5(C)CC[C@H](O)C(C)(C)C5CC[C@]43C)C12 (stereo partly drawn) [Compound 25, (3β)-N-[2-(Dimethylamino)ethyl]-3-hydroxy-lup-20(29)-en-28-amide] | 300 ± 90 nM | 300 ± 160 nM | 1.00 | 300 ± 50 nM | 1.00 | 200 ± 10 nM | 1.50 |  | 400 ± 40 nM | 0.75 | 300 ± 70 nM | 1.00 | both green colored cells as well as late-stage apoptotic cells | 20 | < 1000 nM | ~1 | both apoptotic (membrane blebbing, marked by white arrows in Figure 3) and necrotic cells (red staining) | 
5 | C=C(C)C1CC[C@]2(C(=O)NCCN3CCCC3)CC[C@]3(C)C(CCC4[C@@]5(C)CC[C@H](O)C(C)(C)C5CC[C@]43C)C12 (stereo partly drawn) [Compound 26, (3β)-N-(2-Pyrrolidin-1-ylethyl)-3-hydroxy-lup-20(29)-en-28-amide] | 400 ± 20 nM | 400 ± 60 nM | 1.00 | 400 ± 20 nM | 1.00 | 300 ± 100 nM | 1.33 |  | 500 ± 60 nM | 0.80 | 200 ± 50 nM | 2.00 | both green colored cells as well as late-stage apoptotic cells | 30 | < 1000 nM | ~1 |  | intact cell membranes (green staining); also recorded: protrusions in the plasma membrane (blebbing) of some cells
6 | C=C(C)C1CC[C@]2(C(=O)NCCN3CCNCC3)CC[C@]3(C)C(CCC4[C@@]5(C)CC[C@H](O)C(C)(C)C5CC[C@]43C)C12 (stereo partly drawn) [Compound 28, (3β)-N-(2-Piperazin-1-ylethyl)-3-hydroxy-lup-20(29)-en-28-amide] | 800 ± 220 nM | 900 ± 210 nM | 0.89 | 800 ± 180 nM | 1.00 | 800 ± 40 nM | 1.00 | 146 to 148 °C (dec.) | 850 ± 170 nM | 0.94 | 300 ± 20 nM | 2.67 |  |  |  |  |  | 
7 | C=C(C)C1CC[C@]2(C(=O)NCCCCN)CC[C@]3(C)C(CCC4[C@@]5(C)CC[C@H](O)C(C)(C)C5CC[C@]43C)C12 (stereo partly drawn) [Compound 29, (3β)-N-(4-Aminobutyl)-3-hydroxy-lup-20(29)-en-28-amide] | 500 ± 100 nM | 400 ± 60 nM | 1.25 | 400 ± 100 nM | 1.25 | 600 ± 100 nM | 0.83 | 130 to 133 °C | 800 ± 260 nM | 0.63 | 600 ± 100 nM | 0.83 |  |  |  |  |  | 
8 | C=C(C)C1CC[C@]2(C(=O)NCCOCCN)CC[C@]3(C)C(CCC4[C@@]5(C)CC[C@H](O)C(C)(C)C5CC[C@]43C)C12 (stereo partly drawn) [Compound 30, (3β)-N-[2-(2-Aminoethoxy)ethyl]-3-hydroxy-lup-20(29)-en-28-amide] | 400 ± 70 nM | 500 ± 40 nM | 0.80 | 500 ± 70 nM | 0.80 | 500 ± 40 nM | 0.80 | 182 to 183 °C | 200 ± 10 nM | 2.00 | 400 ± 200 nM | 1.00 |  |  |  |  |  | 
